Measurements published in patent US11319298B2 (Merck Sharp & Dohme Corp., priority 2016, dated 2022).

target: T1, human M4 muscarinic acetylcholine receptor (Homo sapiens, UniProt P08173); test: human FLIPR-based M4 PAM assay, CHO-K1 cells stably transfected with human M4 receptor and chimeric G-protein Gαqi5; format: cell-based; conditions: inflection point (IP) of dose response curve; acetylcholine added at 20% of maximum response; CHO-K1 human M4/Gαqi5, FLIPR Tetra
T1 construct: expressed in transfected cells; host or cells: CHO-K1
T1 sequence (P08173 1-479): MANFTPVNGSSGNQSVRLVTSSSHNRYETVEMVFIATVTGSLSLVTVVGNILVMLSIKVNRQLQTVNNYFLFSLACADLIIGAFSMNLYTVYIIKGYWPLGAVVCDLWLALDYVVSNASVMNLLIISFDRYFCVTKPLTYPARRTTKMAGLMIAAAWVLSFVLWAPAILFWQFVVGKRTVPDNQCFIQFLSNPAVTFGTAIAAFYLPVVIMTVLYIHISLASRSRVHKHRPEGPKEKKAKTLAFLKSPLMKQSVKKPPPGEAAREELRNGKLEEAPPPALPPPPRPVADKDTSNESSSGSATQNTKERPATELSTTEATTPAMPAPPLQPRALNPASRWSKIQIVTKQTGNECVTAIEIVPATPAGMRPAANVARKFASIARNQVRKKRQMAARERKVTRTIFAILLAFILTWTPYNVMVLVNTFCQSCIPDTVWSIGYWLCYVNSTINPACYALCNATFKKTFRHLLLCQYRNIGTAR
Protocol: In a typical experiment the M4 muscarinic acetylcholine receptor modulating activity of the compounds of the present invention was determined in accordance with the following experimental method. CHO-K1 cells stably transfected with human M4 receptor and chimeric G-protein Gαqi5 (Coward P, et al., Analytical Biochemistry, 270:242-248 (1999)) are thawed from liquid N2 storage, resuspended in growth medium, plated in black, clear bottom 384 well plates, and incubated 16-20 hours at 37° C., 5% CO2. On the day of assay, growth medium is removed, the cells are washed 2 times with wash buffer, and cells are incubated in dye loading buffer at 37° C., 5% CO2 for ˜1 hour. Following dye loading the cell plates are placed in a FLIPR Tetra instrument and while monitoring dye fluorescence (excitation […]), 10 uL of test substance at increasing concentrations is added, and fluorescence values are recorded for 4 min. Next, 10 uL of acetylcholine is added (final concentration calculated so as to achieve 20% of the maximum acetycholine response), and the fluorescence reading is continued for 3.5 min. In some cases, a third addition of acetylcholine (final concentration calculated to achieve 70% of the maximal acetylcholine response) is performed. The resulting dose response curves are fit to a 4 parameter logistic equation and the final result is determined as the inflection point (IP) of the curve
CHO-K1 cells stably transfected with human M4 receptor and chimeric G-protein Gαqi5 are thawed from liquid N2 storage, resuspended in growth medium, plated in black, clear bottom 384 well plates, and incubated 16-20 hours at 37° C., 5% CO2.
On the day of assay, growth medium is removed, the cells are washed 2 times with wash buffer, and cells are incubated in dye loading buffer at 37° C., 5% CO2 for ˜1 h. Following dye loading the cell plates are placed in a FLIPR Tetra instrument and while monitoring dye fluorescence ([…]), 10 uL of test substance at increasing concentrations is added, and fluorescence values are recorded for 4 min. Next, 10 uL of acetylcholine is added (final concentration calculated so as to achieve 20% of the maximum acetycholine response), and the fluorescence reading is continued for 3.5 min. In some cases, a third addition of acetylcholine (final concentration calculated to achieve 70% of the maximal acetylcholine response) is performed.

| Compound | EC50 |
| --- | --- |
| 6-((1-(6-chloro-2-(hydroxymethyl)-5-methylpyrimidin-4-yl)piperidin-4-yl)oxy)-2-cyclopropylisoindolin-1-one [Example 32] | 185 nM |
| COc1ccc(O[C@@H]2CCN(c3ncnc(Cl)c3C)C[C@@H]2F)cc1 (relative stereo) [Example 13, 4-chloro-6-((cis)-3-fluoro-4-(4-methoxyphenoxy)piperidin-1-yl)-5-methylpyrimidine] | 110 nM |
| Cc1c(Cl)nc(CO)nc1N1CC[C@@H](Oc2ccc3c(cnn3C)c2)[C@@H](F)C1 (relative stereo) [Example 25, (4-chloro-6-((cis)-3-fluoro-4-((1-methyl-1H-indazol-5-yl)oxy)piperidin-1-yl)-5-methylpyrimidin-2-yl)methanol] | 78 nM |
| COc1ccc(OC2CCN(c3nnc(C(=O)N[C@@H]4CCc5ccncc5C4)cc3C)CC2)cn1 (single isomer, unassigned) [Example 107A] | 182 nM |
| COc1ccc(OC2CCN(c3nc(C)nc(Cl)c3C)CC2)cn1 [Example 1, 4-Chloro-6-(4-((6-methoxypyridin-3-yl)oxy)piperidin-1-yl)-2,5-dimethylpyrimidine] | 191 nM |
| Cc1ccc(OC2CCN(c3nc(CO)nc(Cl)c3C)CC2)cc1Cl [Example 3, (4-chloro-6-(4-(3-chloro-4-methylphenoxy)piperidin-1-yl)-5-methylpyrimidin-2-yl)methanol] | 452 nM |
| Cc1c(Cl)nc(CO)nc1N1CCC(Oc2ccc(S(C)(=O)=O)cc2)CC1 [Example 8, (4-chloro-5-methyl-6-(4-(4-(methylsulfonyl)phenoxy)piperidin-1-yl)pyrimidin-2-yl)methanol] | 1360 nM |
| Cc1c(Cl)nc(CO)nc1N1CCC(Oc2ccc3ccn(C)c(=O)c3c2)CC1 [Example 9, 7-((1-(6-chloro-2-(hydroxymethyl)-5-methylpyrimidin-4-yl)piperidin-4-yl)oxy)-2-methylisoquinolin-1(2H)-one] | 2490 nM |
| COC(=O)c1cc(C)c(N2CCC(Oc3ccc(OC)cc3)CC2)nn1 [Example 10, methyl 6-(4-(4-methoxyphenoxy)piperidin-1-yl)-5-methylpyridazine-3-carboxylate] | 82 nM |
| Cc1nc(Cl)c(C)c(N2CCC(Oc3cccnc3)CC2)n1 [Example 12, 4-chloro-2,5-dimethyl-6-(4-(pyridin-3-yloxy)piperidin-1-yl)pyrimidine] | 292 nM |
| Cc1c(Cl)ncnc1N1CCC(Oc2cccnc2)CC1 [Example 14, 4-chloro-5-methyl-6-(4-(pyridin-3-yloxy)piperidin-1-yl)pyrimidine] | 609 nM |
| CSc1nc(Cl)c(C)c(N2CCC(Oc3cccnc3)CC2)n1 [Example 15, 4-chloro-5-methyl-2-(methylthio)-6-(4-(pyridin-3-yloxy)piperidin-1-yl)pyrimidine] | 745 nM |
| COc1ccc(OC2CCN(c3nc(OC)ncc3C#N)CC2)cc1 [Example 18, 2-methoxy-4-(4-(4-methoxyphenoxy)piperidin-1-yl)pyrimidine-5-carbonitrile] | 1890 nM |
| CSc1ncc(C)c(N2CCC(Oc3cccnc3)CC2)n1 [Example 20, 5-methyl-2-(methylthio)-4-(4-(pyridin-3-yloxy)piperidin-1-yl)pyrimidine] | 3060 nM |
| Cc1c(Cl)nc(CO)nc1N1CCC(Oc2ccc3c(c2)C(=O)CCO3)CC1 [Example 21, 6-((1-(6-chloro-2-(hydroxymethyl)-5-methylpyrimidin-4-yl)piperidin-4-yl)oxy)chroman-4-one] | 57 nM |
| Cc1c(Cl)nc(CO)nc1N1CCC(Oc2ccc3c(c2)NCCO3)CC1 [Example 27, (4-chloro-6-(4-((3,4-dihydro-2H-benzo[b][1,4]oxazin-6-yl)oxy)piperidin-1-yl)-5-methylpyrimidin-2-yl)methanol] | 112 nM |
| COc1ccc(OC2CCN(c3nnc(-c4nc(C)no4)cc3C)CC2)cn1 [Example 28, 5-(6-(4-((6-methoxypyridin-3-yl)oxy)piperidin-1-yl)-5-methylpyridazin-3-yl)-3-methyl-1,2,4-oxadiazole] | 119 nM |
| Cc1c(Cl)nc(CO)nc1N1CCC(Oc2ccc3c(ccn3C)c2)CC1 [Example 29, (4-chloro-5-methyl-6-(4-((1-methyl-1H-indol-5-yl)oxy)piperidin-1-yl)pyrimidin-2-yl)methanol] | 126 nM |
| Cc1c(Cl)nc(CO)nc1N1CCC(Oc2ccc3c(c2)NC(=O)CC3)CC1 [Example 30, 7-((1-(6-chloro-2-(hydroxymethyl)-5-methylpyrimidin-4-yl)piperidin-4-yl)oxy)-3,4-dihydroquinolin-2(1H)-one] | 140 nM |

More lines, now with the values ahead:

| EC50 | Compound |
| --- | --- |
| 427 nM | Cc1c(Cl)nc(CO)nc1N1CCC(Oc2ccc3ccc(=O)oc3c2)CC1 [Example 2, 7-((1-(6-chloro-2-(hydroxymethyl)-5-methylpyrimidin-4-yl)piperidin-4-yl)oxy)-2H-chromen-2-one] |
| 533 nM | Cc1c(Cl)nc(CO)nc1N1CCC(Oc2ccc3ncnn3c2)CC1 [Example 4, (4-(4-([1,2,4]triazolo[1,5-a]pyridin-6-yloxy)piperidin-1-yl)-6-chloro-5-methylpyrimidin-2-yl)methanol] |
| 766 nM | Cc1c(Cl)nc(CO)nc1N1CCC(Oc2ccc3nonc3c2)CC1 [Example 5, (4-(4-(benzo[c][1,2,5]oxadiazol-5-yloxy)piperidin-1-yl)-6-chloro-5-methylpyrimidin-2-yl)methanol] |
| 976 nM | Cc1c(Cl)nc(CO)nc1N1CCC(Oc2ccc3ncn(C)c(=O)c3c2)CC1 [Example 6, 6-((1-(6-chloro-2-(hydroxymethyl)-5-methylpyrimidin-4-yl)piperidin-4-yl)oxy)-3-methylquinazolin-4(3H)-one] |
| 1240 nM | COC1CCN(c2nnc(C(=O)NCc3ccncc3)cc2C)CC1 [Example 7, 6-(4-methoxypiperidin-1-yl)-5-methyl-N-(pyridin-4-ylmethyl)pyridazine-3-carboxamide] |
| 1130 nM | Cc1nnc(N2CCC(Oc3cccc(C#N)c3)CC2)c(C#N)c1C [Example 11, 3-(4-(3-cyanophenoxy)piperidin-1-yl)-5,6-dimethylpyridazine-4-carbonitrile] |
| 1830 nM | COc1ccc(OC2CCN(c3nc(SC)nc(Cl)c3C)CC2)cc1 [Example 16, 4-chloro-6-(4-(4-methoxyphenoxy)piperidin-1-yl)-5-methyl-2-(methylthio)pyrimidine] |
| 2670 nM | COC(=O)Cc1c(Cl)ncnc1N1CCC(Oc2ccc(OC)cc2)CC1 [Example 17, methyl 2-(4-chloro-6-(4-(4-methoxyphenoxy)piperidin-1-yl)pyrimidin-5-yl)acetate] |
| 2920 nM | Cc1ncc(C)c(N2CCC(Oc3cccnc3)CC2)n1 [Example 19, 2,5-dimethyl-4-(4-(pyridin-3-yloxy)piperidin-1-yl)pyrimidine] |
| 74 nM | Cc1cc(C(=O)NCc2ccncc2)nnc1N1CCC(Oc2cnn(C)c2)CC1 [Example 22, 5-methyl-6-(4-((1-methyl-1H-pyrazol-4-yl)oxy)piperidin-1-yl)-N-(pyridin-4-ylmethyl)pyridazine-3-carboxamide] |
| 75 nM | Cc1c(Cl)nc(CO)nc1N1CCC(Oc2cccc(C#N)c2)C(F)(F)C1 (centres unmarked) [Example 23, 3-((1-(6-chloro-2-(hydroxymethyl)-5-methylpyrimidin-4-yl)-3,3-difluoropiperidin-4-yl)oxy)benzonitrile] |
| 77 nM | Cc1c(Cl)nc(CO)nc1N1CCC(Oc2ccc3c(c2)C(=O)OC3)CC1 [Example 24, 6-((1-(6-chloro-2-(hydroxymethyl)-5-methylpyrimidin-4-yl)piperidin-4-yl)oxy)isobenzofuran-1(3H)-one] |
| 85 nM | Cc1c(Cl)nc(CO)nc1N1CCC(Oc2ccc3c(c2)C(=O)CC3)CC1 [Example 26, 6-((1-(6-chloro-2-(hdyroxymethyl)-5-methylpyrimidin-4-yl)piperidin-4-yl)oxy)-2,3-dihydro-1H-inden-1-one] |
